Laboratory results from US20050182020A1, “Ceramide de novo synthesis-based therapeutic and prophylactic methods, and related articles of manufacture” (priority 2003, published 2005).

Experiments:
[1] = tested on: SRE-mediated gene transcription; assay: SRE-mediated gene transcription, Part II inhibitors of sphingolipid synthesis and DAG generation; assay type: cell-based; parameters: SRE-mediated gene transcription inhibited to: unit of the concentration uncertain
Experimental: Reduction of de novo sphingolipid synthesis: Incubation with methylthiodihydroceramide (10 μM) for 6 h reduces SRE-mediated gene transcription to 40%. Methylthiodihydroceramide was received from Gerhild van Echten-Deckert (1). Reduction of de novo sphingolipid biosynthesis by 1-methylthiodihydroceramide is due to its ability to deplete cells of newly formed free sphinganine.
Inhibition of sphingomyelin synthesis: The D609 compound is a xanthate and inhibitor of sphingomyelin synthase. It is a mixture of several isoforms (2). Experiments were carried out with five defined isomers of D609 received via Gemma Fabrias (Dept. of Biological Organic Chemistry, Barcelona, Spain) (Table 1). […] A concentration curve of 10, 20 and 40 μg/ml was tested over 5 h.
Data: Propanolol ([…]) inhibits SRE-mediated gene transcription to 40% (+3%) within 30 min. Resvaratrol ([…]) inhibits SRE-mediated gene transcription to 7% (±16%) within 4 h.

[2] = tested on: SRE-mediated gene transcription; assay: SRE-promoter luciferase reporter gene assay in stably transfected CHO cells; assay type: cell-based, Chinese hamster; settings: for SRE-mediated gene transcription (luciferase RLU/protein): myriocin 1 μM, cycloserine 500 mM, fumonisin B1 10 μM, PPMP 20 μM, NB-DNJ 40 μM, cholesterol/25-OH cholesterol 10/1 μg/ml, vs 1% BSA
Experimental: FIG. 3. Inhibition of ceramide synthesis and SRE-mediated gene transcription. (A) Decreased ceramide synthesis correlates with decreased levels of SRE-mediated gene transcription and mSREBP. […] After cell lysis, luciferase activity was analyzed, and expressed as a ratio of protein content. Data represent the average (±S.D.) of at least 4 different experiments, each performed in triplicate. […] CHO cells stably transfected with an SRE-promoter construct linked to the luciferase reporter gene were incubated for 8 h in the presence of control conditions (1% BSA) or increasing levels of myriocin (0.25-1 μM). After cell lysis, luciferase activity was analyzed, expressed as a ratio of protein content. Data represent the average (±S.D.) of at least 3 different experiments, each performed in triplicate.
FIG. 4. Increased ceramide synthesis and SRE-mediated gene transcription. (A) Increased ceramide de novo synthesis correlates with increased SRE-mediated gene transcription. On day 1, CHO cells stably transfected with an SRE-promoter construct linked to the luciferase reporter gene were plated at 80% confluency. […] Cells were harvested, lysed and analyzed for luciferase activity (measured in relative light units, RLU) and protein content. Data are expressed as percentage of control and represent the average (±S.D.) of three different experiments, each performed in triplicate. Inset: Western blot analysis: On day 1, CHO cells were plated in regular growth medium. On day 2, cells were incubated for 8 h with control medium (1% BSA) or DMS (5 μM). Whole cell extracts (30 μg protein) were loaded on a 4-14% continuous gradient SDS-PAGE gel. P and M denote the precursor (125 kd) and mature (68 kd) form of SREBP-1 in a representative experiment. (B) DMS increases ceramide de novo synthesis. CHO cells were treated for 3.5 h either with control conditions (1% BSA) or DMS (2.5-5 μM). […] Data are expressed as dpm/protein and represent a typical experiment.
(§1) FIG. 5. LY-B cells fail to recover SRE-mediated gene transcription in cholesterol depletion but recover SRE-mediated gene transcription in the presence of DMS. […] Both cell lines have been transfected to stably express an SRE-promoter construct linked to the luciferase reporter gene. On day 2, cells were incubated for 16 h with 1% BSA (control) or in the presence of cholesterol (10 μg/ml) and 25-OH cholesterol (1 μg/ml) to decrease SRE-mediated gene transcription. Then, incubation medium was switched to 1% BSA or DMS (5 μM) for 6 h. After cell lysis, luciferase activity was analyzed, expressed as a ratio of protein content. Data represent the average (±S.D.) of at least 4 different experiments, each performed in triplicate.
Cell culture and stable transfections: Cells were grown in F12-nutrient mixture medium containing 10% fetal bovine serum (FBS), 1% glutamine (v/v), 1% penicillin/streptomycin (v/v), and 10% fetal bovine serum (v/v) at 37° C. in humidified CO2 (5%). To obtain stable transfectants, cells were plated in 12-well plates at 50% confluency and transfected for 5 h in the presence of serum-free Dulbecco's modified Eagle's medium (DMEM) with pSyn SRE (1 μg/well) and pWLNeo (0.25 μg/well) using Lipofectamin (1.5 μl/well). Cells were then incubated for 2 days in growth medium. On day three, neomycin-containing medium (400 μg/ml) was added. Selection for neomycin resistant colonies was continued for three weeks. Pooled clones were analyzed for luciferase expression. Experiments were performed with pooled clones as well as with cells derived from a single clone. Cells were grown in the presence of 400 μg/ml neomycin. For experimental use, cells were plated in the absence of neomycin at least 24 h ahead in regular growth medium.
Enzyme assays: Cells to be analyzed for luciferase activity were lyzed in lysis buffer A containing 0.1% Triton X-100, 50 mM Hepes, 10 mM MgSO4, pH 7.7. Cells were scraped, collected, vortexed and briefly centrifuged to pellet cell debris. […]

[3] = tested on: Niemann Pick Disease Type A fibroblasts; assay: Ceramide de novo synthesis (3H-serine) in NPA fibroblasts; assay type: cell-based; settings: overnight incubation with agent, vs 1% BSA
Experimental: FIG. 19. Ceramide synthesis is increased in NPA fibroblasts. Fibroblasts from different control individuals and from two different cell lines derived from Niemann Pick Disease Type A were incubated for 4 h in the presence of ^3H-serine to measure de novo ceramide synthesis after having been incubated overnight in either control medium (1% BSA) or in the presence of cholesterol or C8-Ceramide. Lipid extraction and separation were carried out.

[4] = tested on: HMG-CoA synthase mRNA; settings: previously shown (ref. 10); cited from earlier work
[5] = tested on: SREBP-1; assay: Western blot analysis of precursor and mature SREBP-1 in CHO cells; assay type: cell-based, Chinese hamster; settings: C6-ceramide 20 μM, 4 h and 8 h, vs controls
Experimental: FIG. 2. C6-ceramide increases pSREBP levels. On day 1, CHO cells were plated in regular growth medium. On day 2, cells were incubated for 4 and 8 h with 1% BSA (control) or in the presence of C6-ceramide (20 μM). Whole cell extracts (30 μg protein) were loaded on a 4-14% continuous gradient SDS-PAGE gel. P denotes the precursor (125 kd) form of SREBP-1 in a representative experiment. C6 ceramide increases the precursor form of SREBP-1 and decreases the mature form of SREBP-1. […] The blot is representative of experiments carried out with ceramide analogues of different chain length. Densitometric results were obtained by analyzing pixels/inch (corrected for actin) and expressed relative to control.
FIG. 4. Increased ceramide synthesis and SRE-mediated gene transcription. (A) Increased ceramide de novo synthesis correlates with increased SRE-mediated gene transcription. […] Cells were harvested, lysed and analyzed for luciferase activity (measured in relative light units, RLU) and protein content. Data are expressed as percentage of control and represent the average (±S.D.) of three different experiments, each performed in triplicate. […] Data are expressed as dpm/protein and represent a typical experiment.
Western blot analysis: Cells were plated on day one in regular growth medium. […] Densitometric quantification was carried out using Scion Image beta 4.02 software (www.scioncorp.com). […]

[6] = tested on: HSN1 cells (4561); assay: Cholesterol / cholesterylester synthesis from 3H-mevalonate in HSN1 cells; assay type: cell-based, human; settings: 16 h, 3H-mevalonate
Experimental: FIG. 12. Increased free cholesterol synthesis in HSN cells. In order to investigate whether increased SRE-mediated gene transcription also results in increased cholesterol synthesis cells were incubated with radioactive mevalonate, a precursor which represents a committed step in cholesterol synthesis (see FIG. 11). Control and HSN1 cells were incubated for 7 h and 18 h in the presence of trace amounts of ^3H-mevalonate. Lipids were extracted and separated by thin […] chromatography (TLC). Radioactive counts in the cholesterol fraction were analyzed by liquid scintillation counting.
FIG. 14. Oleic acid increases HSN 4561 synthesis of high levels of free cholesterol but not cholesteryl ester. Cells were incubated for 4 h with ^3H-mevalonate and grown in the presence or absence of 0.3 mM oleic acid.
FIG. 16. Incubation with mevastatin decreases free cholesterol synthesis in HSN cells as well as in controls. Cells were treated for 16 h in the presence of ^3H-mevalonate to assess cholesterol de novo synthesis and several inhibitors of either cholesterol or ceramide synthesis (Mevastatin=Statin), C6 ceramide (previously shown by us to decreased SREBP levels and SRE-mediated gene transcription), cycloserine (inhibitor of serine-palmiltoyl transferase), cholesterol (classical inhibitor of de novo synthesis by negative feedback).

[7] = tested on: SRE-mediated gene transcription; assay: SRE-promoter luciferase reporter gene assay in LY-B cells (CHO cells mutated in LCB1 subunit of serine-palmitoyl transferase); assay type: cell-based, Chinese hamster; settings: preliminary data
Experimental: as §1
Enzyme assays: Cells to be analyzed for luciferase activity were lyzed in lysis buffer A containing 0.1% Triton X-100, 50 mM Hepes, 10 mM MgSO4, pH 7.7. Cells were scraped, collected, vortexed and briefly centrifuged to pellet cell debris. An aliquot was used to measure luciferase activities in a luminometer (Berthold LB 9501, Wallac Inc., Gaithersburg, Md.) with a luciferin reagent from Promega (Madison, Wis.). Luciferase activity in relative light units (RLU) was divided by protein content (mg/ml) for each extract. […]

## 1-methylthiodihydroceramide
[1]; 10 μM, 6 h
  SRE-mediated gene transcription reduced to: 40%

## CCCCCCCCCCCCCCCC(=O)NC(CN1CCOCC1)C(O)c1ccccc1.Cl (racemic) [PPMP, DL-threo-1-Phenyl-2-palmitoylamino-3-morpholino-1-propanol HCL]
[2]; 8 h
  SRE-mediated gene transcription (luciferase RLU/protein): significantly reduce

## CCCCCCCCCCCCC/C=C/[C@@H](O)[C@H](CO)NC(=O)CCCCCCC [C8-ceramide, D-erythro N-octanoylsphingosine]
[3]
  ceramide de novo synthesis (3H-serine, 4 h): significantly decreases

## CCCCCCCCCCCCCC(=O)N[C@H](C)[C@@H](O)c1ccccc1 [D-MAPP, (1S,2R)-D-erythro-2-(N-Myristoylamino)-1-phenyl-1-propanol]
[4]
  mRNA levels of HMG-CoA synthase: decrease

## CCCCN1C[C@H](O)[C@@H](O)[C@H](O)[C@H]1CO.Cl [NB-DNJ, N-Butyldeoxynojirimycin-HCL]
[2]; 8 h
  SRE-mediated gene transcription (luciferase RLU/protein): does not affect

## CC(C)NCC(O)COc1cccc2ccccc12 (stereo not shown) [Propanolol]
[1]; 250 (unit uncertain), within 30 min
  SRE-mediated gene transcription inhibited to: 40% (+3%)

## Oc1ccc(C=Cc2cc(O)cc(O)c2)cc1 [Resvaratrol, resveratrol]
[1]; 300 (unit uncertain), within 4 h
  SRE-mediated gene transcription inhibited to: 7% (±16%)

## CCCCCCCCCCCCC/C=C/[C@@H](O)[C@@H](N)CO [Sphingosine]
[2]; sphingosine 1.5 μM, 8 h
  increase of SRE-mediated gene transcription: up to two-fold

## N[C@@H]1CON=C1O [cycloserine]
[2]; 8 h
  SRE-mediated gene transcription (luciferase RLU/protein): significantly reduced

## AG10
[1]; 40 μg/ml, 5 h
  Reduction of SRE-mediated gene transcription(40 μg/ml): 52% (±11%)

## D-erythro hexanoylsphingosine [C6-ceramide]
[5]
  cellular levels of pSREBP: increased
  levels of mSREBP: decreased
[6]
  sensitivity of cholesterol de novo synthesis in HSN1 cells (4561) relative to control cells: more sensitive

## ceramide
[2]; under the experimental conditions of FIG. 3, data not shown
  SRE-mediated gene transcription on addition of ceramide: did not increase
[4]
  mRNA levels of HMG-CoA synthase: decrease
[7]
  SRE-mediated gene transcription in LYB-cells incubated with ceramide: did not decrease
